This is an account of results in patent publication US20250228835A1, “PYRIDINYLOXYPYRIDINES AND RELATED COMPOUNDS AND THEIR USE IN TREATING MEDICAL CONDITIONS” (Rectify Pharmaceuticals, Inc., priority 2024, published 2025).

Holding throughout (assay type): cell-based
The target in one experiment is T1, ABCB4 WT (Homo sapiens, UniProt P21439).
T1 construct: expressed in transfected cells
Kind of experiment: ABCB4 WT assay: HiBit protein expression. To be noted: HEK-293 cells stably expressing HiBit-tagged ABCB4 WT; 24 h treatment; top concentration 30 μM; read-out: ABCB4 WT EC50, Emax. The method, boiled down: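 HEK-293 cells stably expressing HiBit-tagged human ABCB4 WT, treated 24 h at 37 °C with 11-dose 3-fold dilutions, top final 30 μM in 0.3% DMSO. HiBit lytic reagent luminescence read after 1 h at 25 °C; Emax and EC50 derived.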

The next experiment deals with T2, ABCA4 P1380L (Homo sapiens, UniProt P78363, P1380L).
T2 construct: expressed in transfected cells
T2 sequence (P78363 whole entry P1380L): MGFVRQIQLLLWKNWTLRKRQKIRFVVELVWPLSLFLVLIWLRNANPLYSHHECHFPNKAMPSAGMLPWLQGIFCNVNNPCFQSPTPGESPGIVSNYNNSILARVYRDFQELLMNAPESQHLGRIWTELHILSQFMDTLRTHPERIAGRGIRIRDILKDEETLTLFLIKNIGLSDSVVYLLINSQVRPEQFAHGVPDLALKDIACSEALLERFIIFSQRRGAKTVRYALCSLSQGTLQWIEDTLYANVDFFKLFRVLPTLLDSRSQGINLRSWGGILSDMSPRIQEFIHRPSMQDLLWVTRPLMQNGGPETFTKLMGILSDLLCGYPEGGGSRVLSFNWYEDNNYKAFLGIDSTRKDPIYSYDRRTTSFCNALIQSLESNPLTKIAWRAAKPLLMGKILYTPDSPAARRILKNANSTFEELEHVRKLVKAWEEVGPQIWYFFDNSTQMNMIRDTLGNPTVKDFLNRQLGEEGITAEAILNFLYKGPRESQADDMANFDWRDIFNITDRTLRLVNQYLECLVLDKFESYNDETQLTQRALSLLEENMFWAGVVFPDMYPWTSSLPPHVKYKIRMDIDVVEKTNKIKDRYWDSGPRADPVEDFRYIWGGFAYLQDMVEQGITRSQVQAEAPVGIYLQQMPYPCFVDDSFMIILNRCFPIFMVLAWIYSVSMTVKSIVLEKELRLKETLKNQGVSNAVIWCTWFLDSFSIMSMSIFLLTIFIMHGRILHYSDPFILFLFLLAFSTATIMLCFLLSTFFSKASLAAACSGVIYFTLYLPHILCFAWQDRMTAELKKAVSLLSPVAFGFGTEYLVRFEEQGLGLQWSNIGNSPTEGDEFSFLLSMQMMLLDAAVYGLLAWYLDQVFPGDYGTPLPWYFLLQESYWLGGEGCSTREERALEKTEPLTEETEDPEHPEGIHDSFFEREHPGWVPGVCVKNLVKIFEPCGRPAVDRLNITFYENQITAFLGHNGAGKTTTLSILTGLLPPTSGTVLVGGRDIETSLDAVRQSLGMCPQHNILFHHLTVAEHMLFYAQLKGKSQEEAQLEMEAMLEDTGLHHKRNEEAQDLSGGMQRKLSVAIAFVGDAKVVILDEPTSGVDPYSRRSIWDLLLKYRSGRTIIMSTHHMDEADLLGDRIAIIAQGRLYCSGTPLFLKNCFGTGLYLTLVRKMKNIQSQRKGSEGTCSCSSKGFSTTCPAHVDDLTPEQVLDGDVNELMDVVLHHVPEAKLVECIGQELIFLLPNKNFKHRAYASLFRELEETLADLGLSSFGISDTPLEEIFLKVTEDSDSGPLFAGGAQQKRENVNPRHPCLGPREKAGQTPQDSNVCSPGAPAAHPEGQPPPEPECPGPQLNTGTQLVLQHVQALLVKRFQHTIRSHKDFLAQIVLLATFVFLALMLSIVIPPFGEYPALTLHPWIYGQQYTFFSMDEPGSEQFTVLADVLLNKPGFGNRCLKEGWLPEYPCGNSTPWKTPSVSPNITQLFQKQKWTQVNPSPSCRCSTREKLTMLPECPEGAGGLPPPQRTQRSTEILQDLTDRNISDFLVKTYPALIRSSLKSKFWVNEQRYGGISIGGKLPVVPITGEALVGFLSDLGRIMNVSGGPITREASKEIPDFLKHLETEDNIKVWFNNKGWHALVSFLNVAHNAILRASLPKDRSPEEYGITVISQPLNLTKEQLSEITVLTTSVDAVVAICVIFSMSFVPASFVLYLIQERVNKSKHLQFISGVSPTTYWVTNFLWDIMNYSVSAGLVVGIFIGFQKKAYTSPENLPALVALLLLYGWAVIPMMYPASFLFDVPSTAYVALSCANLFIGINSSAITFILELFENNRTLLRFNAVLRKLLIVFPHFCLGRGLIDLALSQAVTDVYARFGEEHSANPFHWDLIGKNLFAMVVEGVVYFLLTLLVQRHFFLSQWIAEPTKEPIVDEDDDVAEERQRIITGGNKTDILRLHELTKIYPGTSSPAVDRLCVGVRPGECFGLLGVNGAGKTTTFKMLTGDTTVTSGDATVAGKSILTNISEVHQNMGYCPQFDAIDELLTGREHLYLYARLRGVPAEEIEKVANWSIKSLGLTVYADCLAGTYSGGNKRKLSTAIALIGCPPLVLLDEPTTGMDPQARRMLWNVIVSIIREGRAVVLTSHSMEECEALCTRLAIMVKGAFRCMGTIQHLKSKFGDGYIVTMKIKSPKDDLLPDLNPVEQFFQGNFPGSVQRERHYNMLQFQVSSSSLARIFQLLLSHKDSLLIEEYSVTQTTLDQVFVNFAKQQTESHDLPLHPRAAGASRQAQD
Nature of the experiment: A4 correction dose-response assay: ABCA4 P1380L HiBit protein expression. To be noted: HEK-293 cells stably expressing HiBit-tagged ABCA4 P1380L; 24 h treatment; top concentration 30 μM; read-out: ABCA4 P1380L EC50, Emax. The method, boiled down:
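Cells transfected with HiBit-tagged human ABCA4 P1380L cDNA were treated for 24 h at 37°C with an eleven-point dilution series (top final 30 μM, 0.3% DMSO).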

The target of a further experiment is T3, ABCD2 WT (Homo sapiens, UniProt Q9UBJ2).
T3 construct: expressed in transfected cells
T3 sequence (Q9UBJ2 1-740): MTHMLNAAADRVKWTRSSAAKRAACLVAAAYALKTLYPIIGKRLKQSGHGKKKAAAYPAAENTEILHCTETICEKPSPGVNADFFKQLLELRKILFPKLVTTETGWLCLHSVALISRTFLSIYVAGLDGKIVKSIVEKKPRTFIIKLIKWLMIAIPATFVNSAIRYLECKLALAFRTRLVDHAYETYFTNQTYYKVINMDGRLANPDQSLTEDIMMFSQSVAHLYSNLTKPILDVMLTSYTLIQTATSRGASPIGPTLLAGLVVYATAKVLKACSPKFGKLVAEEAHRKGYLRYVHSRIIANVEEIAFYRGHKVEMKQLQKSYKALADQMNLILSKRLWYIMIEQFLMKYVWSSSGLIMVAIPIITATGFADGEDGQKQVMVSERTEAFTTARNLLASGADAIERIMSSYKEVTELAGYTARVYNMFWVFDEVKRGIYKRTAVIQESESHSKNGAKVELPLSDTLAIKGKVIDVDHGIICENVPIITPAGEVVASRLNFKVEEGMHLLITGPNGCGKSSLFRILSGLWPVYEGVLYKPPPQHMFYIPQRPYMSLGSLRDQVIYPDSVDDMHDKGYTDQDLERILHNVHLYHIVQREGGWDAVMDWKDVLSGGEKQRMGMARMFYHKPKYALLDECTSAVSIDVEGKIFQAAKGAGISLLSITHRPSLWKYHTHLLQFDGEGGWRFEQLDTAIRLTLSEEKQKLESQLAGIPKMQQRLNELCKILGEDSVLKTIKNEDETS
Nature of the experiment: D2 correction dose-response assay: ABCD2 WT HiBit protein expression. To be noted: HEK-293/ABCD2 WT cells, 24 hours treatment, HiBit luminescence; class combines EC50 and Mean MaxAct (fold); read-out: ABCD2 WT EC50, Emax. The method, boiled down:
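HEK-293 cells stably expressing HiBit-tagged human ABCD2 WT were treated with 11 doses (3-fold dilutions, top final 30 μM, 0.3% DMSO) for 24 h at 37 °C. Expression was measured by HiBit lytic luminescence after 1 h at 25 °C, giving EC50 and Emax.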

The structures appear in SMILES notation. A value given as a limit tells only on which side of the number the result lay.

T1 sequence (P21439 whole entry): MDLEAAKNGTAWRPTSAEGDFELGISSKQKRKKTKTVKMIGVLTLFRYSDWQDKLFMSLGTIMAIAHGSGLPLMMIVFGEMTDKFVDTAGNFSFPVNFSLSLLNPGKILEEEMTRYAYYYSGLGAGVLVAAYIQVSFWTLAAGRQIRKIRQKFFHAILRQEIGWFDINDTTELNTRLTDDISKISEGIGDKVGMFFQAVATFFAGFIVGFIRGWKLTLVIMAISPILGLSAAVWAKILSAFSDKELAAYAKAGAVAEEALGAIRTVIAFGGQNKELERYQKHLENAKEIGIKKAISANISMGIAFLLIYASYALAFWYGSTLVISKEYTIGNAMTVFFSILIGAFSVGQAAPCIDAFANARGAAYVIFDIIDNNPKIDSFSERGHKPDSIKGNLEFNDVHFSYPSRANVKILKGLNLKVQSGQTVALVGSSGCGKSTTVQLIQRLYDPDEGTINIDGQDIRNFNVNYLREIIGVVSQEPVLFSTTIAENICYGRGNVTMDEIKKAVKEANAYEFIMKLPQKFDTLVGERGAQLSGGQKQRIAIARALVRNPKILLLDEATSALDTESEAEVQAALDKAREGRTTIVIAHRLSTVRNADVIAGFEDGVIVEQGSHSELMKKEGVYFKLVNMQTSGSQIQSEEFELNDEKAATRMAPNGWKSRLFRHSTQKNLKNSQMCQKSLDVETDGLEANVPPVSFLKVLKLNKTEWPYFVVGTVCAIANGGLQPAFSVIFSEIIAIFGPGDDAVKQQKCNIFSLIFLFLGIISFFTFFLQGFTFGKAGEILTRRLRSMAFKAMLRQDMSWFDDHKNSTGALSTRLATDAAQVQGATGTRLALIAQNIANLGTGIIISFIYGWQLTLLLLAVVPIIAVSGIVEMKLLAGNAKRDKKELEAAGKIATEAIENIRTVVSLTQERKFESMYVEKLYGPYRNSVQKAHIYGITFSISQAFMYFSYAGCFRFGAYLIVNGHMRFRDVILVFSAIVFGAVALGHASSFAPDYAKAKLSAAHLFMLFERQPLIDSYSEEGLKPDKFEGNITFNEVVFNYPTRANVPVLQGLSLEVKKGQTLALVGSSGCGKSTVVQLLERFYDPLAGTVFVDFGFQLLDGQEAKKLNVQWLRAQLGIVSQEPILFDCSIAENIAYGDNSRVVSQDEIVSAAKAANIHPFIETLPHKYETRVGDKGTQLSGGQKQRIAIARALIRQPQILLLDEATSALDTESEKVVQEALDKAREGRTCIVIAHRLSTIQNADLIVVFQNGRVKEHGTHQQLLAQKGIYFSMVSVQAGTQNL

With `Cc1cc(C2CC2)nc(C)c1Oc1nc(-c2ccnc(C#N)c2)ccc1NS(C)(=O)=O` [Compound I-213], the EC50 is under 1000 nM on ABCB4 WT, under 1000 nM at ABCA4 P1380L and over 25000 nM at ABCD2 WT.

With `Cc1cc(C)c(Oc2nc(-c3cncc(C4COC4)c3)ccc2NS(C)(=O)=O)c(C)n1` [Compound I-216], the EC50 at ABCB4 WT is under 1000 nM; at ABCA4 P1380L, over 25000 nM; on ABCD2 WT, under 1000 nM.

As to `Cc1cc(C)c(Oc2nc(-c3cncc(N4CC(F)(F)C4)c3)ccc2NS(C)(=O)=O)c(C)n1` [Compound I-195], the EC50 was under 1000 nM on ABCB4 WT, over 25000 nM at ABCA4 P1380L and over 25000 nM on ABCD2 WT.

Consider `Cc1nc(C(F)(F)F)nc(C)c1Oc1nc(-c2cncc(Cl)c2)ccc1NS(C)(=O)=O` [Compound I-205], for which the values for the EC50 on ABCB4 WT, at ABCA4 P1380L and on ABCD2 WT were at least 25000 nM, under 1000 nM and under 1000 nM, respectively.

On to `Cc1cc(C)c(Oc2nc(-c3cnn(C)c3C)ccc2NS(C)(=O)=O)c(C)c1` [Compound I-13], for which the EC50 was 1000 to 10000 nM on ABCB4 WT, 1000 to 10000 nM at ABCA4 P1380L and over 25000 nM on ABCD2 WT.

With `Cc1cc(C)c(Oc2nc(-c3cncc(C#N)c3)ccc2NS(C)(=O)=O)c(OC2CC2)n1` [Compound I-176], the EC50 at ABCB4 WT, on ABCA4 P1380L and at ABCD2 WT was under 1000 nM throughout.

Take `Cc1nc(N2CC(F)(F)C2)nc(C)c1Oc1nc(-c2cncc(C#N)c2)ccc1NS(C)(=O)=O` [Compound I-170]: the EC50 was under 1000 nM on ABCB4 WT, under 1000 nM on ABCA4 P1380L and 1000 to 10000 nM at ABCD2 WT.

As to `COc1cc(C)c(Oc2nc(-c3cncc(C#N)c3)ccc2NS(C)(=O)=O)c(C)n1` [Compound I-222], the EC50 on ABCB4 WT, on ABCA4 P1380L and at ABCD2 WT was under 1000 nM each time.

Regarding `C#Cc1cncc(-c2ccc(NS(C)(=O)=O)c(Oc3c(C)cc(C)nc3C)n2)c1` [Compound I-212], the EC50 on ABCB4 WT, at ABCA4 P1380L and at ABCD2 WT was under 1000 nM each time.

As for `CNS(=O)(=O)c1ccc(-c2cncc(C#N)c2)nc1Oc1c(C)cc(C(F)(F)F)nc1C` [Compound I-168], the EC50 on ABCB4 WT, at ABCA4 P1380L and at ABCD2 WT was 1000 to 10000 nM each time.

Consider `Cc1nc(C2COC2)nc(C)c1Oc1nc(-c2cncc(C#N)c2)ccc1NS(C)(=O)=O` [Compound I-174], for which the EC50 is at least 25000 nM at ABCB4 WT, 1000 to 10000 nM at ABCA4 P1380L and 1000 to 10000 nM at ABCD2 WT.

In the case of `Cc1cc(Oc2nc(-c3cncc(C#N)c3)ccc2NS(C)(=O)=O)nn1C` [Compound I-113], the EC50 on ABCB4 WT, on ABCA4 P1380L and at ABCD2 WT was under 25000 nM in each case.

Take `COC(=O)c1cncc(-c2ccc(NS(C)(=O)=O)c(Oc3cc(C)n(C)n3)n2)c1` [Compound I-206]: the EC50 on ABCB4 WT is under 25000 nM; on ABCA4 P1380L, under 25000 nM; on ABCD2 WT it was over 25000 nM.

On to `Cc1cc(Oc2nc(-c3cncc(C#N)c3)ccc2NS(C)(=O)=O)c(C)nc1C(F)(F)F` [Compound I-182], for which the EC50 at ABCB4 WT, at ABCA4 P1380L and at ABCD2 WT was under 1000 nM throughout.

For the compound `Cc1cc(C(F)F)nc(C)c1Oc1nc(-c2ccnc(C#N)c2)ccc1NS(=O)(=O)C1CC1` [Compound I-203], the EC50 was under 25000 nM at ABCB4 WT, under 1000 nM on ABCA4 P1380L and under 1000 nM at ABCD2 WT.

`Cc1cc(C)c(Oc2nc(-n3cnc(C)c3)ccc2NS(C)(=O)=O)c(C)c1` [Compound I-12]: the EC50 at ABCB4 WT is under 25000 nM; at ABCA4 P1380L, over 25000 nM; on ABCD2 WT, under 1000 nM.

In the case of `Cc1cc(C)c(Oc2nc(-c3cc[nH]c(=O)c3)ccc2NS(C)(=O)=O)c(C)n1` [Compound I-187], the EC50 was at least 25000 nM at ABCB4 WT, over 25000 nM at ABCA4 P1380L and over 25000 nM at ABCD2 WT.

For `Cc1cc(C(F)F)nc(C)c1Oc1nc(-c2ccnc(C#N)c2)ccc1NS(C)(=O)=O` [Compound I-204], the EC50 at ABCB4 WT, on ABCA4 P1380L and on ABCD2 WT was under 1000 nM in each case.

Take `Cc1nc(Oc2nc(-c3cncc(C#N)c3)ccc2NS(C)(=O)=O)c(C)s1` [Compound I-107]: the EC50 was at least 25000 nM on ABCB4 WT, over 25000 nM on ABCA4 P1380L and under 1000 nM on ABCD2 WT.

Regarding `CNS(=O)(=O)c1ccc(-c2cncc(C#N)c2)nc1Oc1c(C)nc(C(F)(F)F)nc1C` [Compound I-167], the EC50 on ABCB4 WT, on ABCA4 P1380L and at ABCD2 WT was 1000 to 10000 nM in each case.

For the compound `COC1CN(c2cncc(-c3ccc(NS(C)(=O)=O)c(Oc4c(C)cc(C)nc4C)n3)c2)C1` [Compound I-196], the EC50 on ABCB4 WT was at least 25000 nM; on ABCA4 P1380L, over 25000 nM; on ABCD2 WT, under 1000 nM.

On to `Cc1cc(C)c(Oc2nc(-c3cncc(C#N)c3)ccc2NS(=O)(=O)C2(C)CC2)c(C)n1` [Compound I-172], for which the EC50 is under 1000 nM on ABCB4 WT, under 1000 nM at ABCA4 P1380L and over 25000 nM at ABCD2 WT.

Consider `COC(=O)N1CCN(c2ccc(NS(C)(=O)=O)c(Oc3c(C)cc(C)cc3C)n2)CC1` [Compound I-16], for which the EC50 on ABCB4 WT is at least 25000 nM; at ABCA4 P1380L, over 25000 nM; at ABCD2 WT, 10000 to 25000 nM.

`Cc1nc(C2CC2)c(C(F)(F)F)cc1Oc1nc(-c2cncc(C#N)c2)ccc1NS(C)(=O)=O` [Compound I-184]: the EC50 on ABCB4 WT, at ABCA4 P1380L and at ABCD2 WT was under 1000 nM throughout.

For `CC(=O)N1CCN(c2ccc(NS(C)(=O)=O)c(Oc3c(C)cc(C)cc3C)n2)CC1` [Compound I-17], the EC50 on ABCB4 WT is at least 25000 nM; at ABCA4 P1380L, over 25000 nM; on ABCD2 WT, 1000 to 10000 nM.

Regarding `Cc1cc(C(F)(F)F)nc(C)c1Oc1nc(-c2cncc(C3COC3)c2)ccc1NS(C)(=O)=O` [Compound I-198], the EC50 on ABCB4 WT was under 1000 nM; on ABCA4 P1380L, over 25000 nM; at ABCD2 WT, over 25000 nM.

As for `Cc1nc(C2CC2)nc(C)c1Oc1nc(-c2cncc(C#N)c2)ccc1NS(C)(=O)=O` [Compound I-183], the EC50 on ABCB4 WT, at ABCA4 P1380L and at ABCD2 WT was under 1000 nM in each case.

In the case of `Cc1nn(C)c(C)c1Oc1nc(-c2cncc(C#N)c2)ccc1NS(C)(=O)=O` [Compound I-115], the EC50 on ABCB4 WT is under 1000 nM; at ABCA4 P1380L, under 25000 nM; on ABCD2 WT, under 1000 nM.

As to `Cc1nc(C)c(C(F)(F)F)cc1Oc1nc(-c2cncc(C#N)c2)ccc1NS(C)(=O)=O` [Compound I-225], the EC50 at ABCB4 WT was under 25000 nM; at ABCA4 P1380L, over 25000 nM; at ABCD2 WT it was under 1000 nM.

As for `Cc1cc(C)c(Oc2nc(-c3cnn(C)c3)ccc2NS(C)(=O)=O)c(C)c1` [Compound I-14], the EC50 on ABCB4 WT was at least 25000 nM; at ABCA4 P1380L, over 25000 nM; on ABCD2 WT, 1000 to 10000 nM.

As to `Cc1cc(N2CC(F)(F)C2)nc(C)c1Oc1nc(-c2cncc(C#N)c2)ccc1NS(C)(=O)=O` [Compound I-180], the figures for the EC50 at ABCB4 WT, on ABCA4 P1380L and at ABCD2 WT were under 1000 nM, over 25000 nM and over 25000 nM, respectively.

For the compound `Cc1nc(C)c(Oc2nc(-c3cncc(C#N)c3)ccc2NS(C)(=O)=O)c(C2CC2)n1` [Compound I-165], the EC50 on ABCB4 WT, at ABCA4 P1380L and at ABCD2 WT was 1000 to 10000 nM throughout.

As to `Cc1nc(C)c(Oc2nc(-c3cncc(C(F)F)c3)ccc2NS(C)(=O)=O)c(C)n1` [Compound I-191], the figures for the concentration giving a half-maximal response (EC50) on ABCB4 WT, at ABCA4 P1380L and on ABCD2 WT were under 1000 nM, under 1000 nM and 10000 to 25000 nM, respectively.
